Experimental findings from ChEMBL document CHEMBL4261644, “Novel Symmetrical Benzazolyl Derivatives Endowed with Potent Anti-Heparanase Activity” (J Med Chem, 2018) are described below.

As usually defined, the IC50 is the concentration that inhibits the measured activity by half. The inhibition is how much of the control response was suppressed.

One test concerns the target T1, Heparanase (Homo sapiens, UniProt Q9Y251).
T1 sequence (Q9Y251 whole entry): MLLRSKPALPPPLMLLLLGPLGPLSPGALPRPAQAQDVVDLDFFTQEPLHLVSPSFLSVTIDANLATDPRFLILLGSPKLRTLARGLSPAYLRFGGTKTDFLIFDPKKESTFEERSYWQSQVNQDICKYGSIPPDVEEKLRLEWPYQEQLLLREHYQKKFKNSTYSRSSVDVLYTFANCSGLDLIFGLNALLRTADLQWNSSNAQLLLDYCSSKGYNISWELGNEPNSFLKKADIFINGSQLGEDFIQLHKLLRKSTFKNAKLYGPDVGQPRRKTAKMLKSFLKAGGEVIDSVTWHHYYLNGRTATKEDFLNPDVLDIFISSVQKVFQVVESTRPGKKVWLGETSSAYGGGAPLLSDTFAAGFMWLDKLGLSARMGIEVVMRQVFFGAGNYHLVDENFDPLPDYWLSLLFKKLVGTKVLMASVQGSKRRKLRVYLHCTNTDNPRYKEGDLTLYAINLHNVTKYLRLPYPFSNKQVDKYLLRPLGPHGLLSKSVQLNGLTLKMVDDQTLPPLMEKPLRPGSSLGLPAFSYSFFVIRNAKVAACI
Description: Inhibition of recombinant HPSE (unknown origin) using fondaparinux as substrate incubated for 3 hrs in absence of light by WST1 assay. Background: Tetrazolium dyes change colour on reduction, which living cells bring about.

Test [1] deals with HT-1080. Description: Antiproliferative activity against human HT1080 cells after 72 hrs by SRB assay. In kind it is cell-based. Conditions: ht-1080.
Test [2] deals with U-87 MG. Kind of test: Antiproliferative activity against human U87MG cells after 72 hrs by SRB assay. In kind it is cell-based, U-87MG ATCC. Conditions: u-87mg atcc. (Sulforhodamine B stains cellular protein and so reports cell mass.)
Test [3] concerns U2OS. Kind of test: Antiproliferative activity against human U2OS cells after 72 hrs by SRB assay. In kind it is cell-based. Conditions: u2os.
The test system of test [4] is U-87 MG. Kind of test: Anti-invasive activity in human U87MG cells assessed as reduction in invasive potential at 10 uM after 24 hrs by matrigel invasion assay relative to control. In kind it is functional, U-87MG ATCC.
Test [5] addresses T2, Heparanase (Homo sapiens) (UniProt Q9Y251).
T2 sequence (whole entry): T1 sequence (Q9Y251 whole entry)
Kind of test: Inhibition of HPSE in human HT1080 cells assessed as reduction in FGF1 mRNA expression after 24 hrs by qPCR analysis relative to control. The class given is cell-based.

The target of test [6] is T2, Heparanase (Homo sapiens). Kind of test: Inhibition of HPSE in human HT1080 cells assessed as reduction in FGF2 mRNA expression after 24 hrs by qPCR analysis relative to control. The class given is cell-based.
In test [7] the test system is HT-1080. Kind of test: Anti-invasive activity in human HT1080 cells assessed as reduction in invasive potential at […] after 24 hrs by matrigel invasion assay relative to control. The class given is functional, cell-based.
The target in test [8] is T2, Heparanase (Homo sapiens). Description: Inhibition of HPSE in human HT1080 cells assessed as reduction in VEGF mRNA expression after 24 hrs by qPCR analysis relative to control. The class given is cell-based.
Test [9] concerns the target T2, Heparanase (Homo sapiens). Description: Inhibition of HPSE in human HT1080 cells assessed as reduction in HPSE mRNA expression after 24 hrs by qPCR analysis relative to control. The class given is cell-based.
The subject of test [10] is HT-1080. Description: Anti-invasive activity in human HT1080 cells assessed as reduction in invasive potential at 10 uM after 24 hrs by matrigel invasion assay relative to control. In kind it is functional. Conditions: HT-1080, 24 h.
In test [11] the test system is U2OS. Kind of test: Anti-invasive activity in human U2OS cells assessed as reduction in invasive potential at 10 uM after 24 hrs by matrigel invasion assay relative to control. The class given is functional.
For test [12], the target named is T2, Heparanase (Homo sapiens). Description: Inhibition of HPSE in human HT1080 cells assessed as reduction in MMP9 mRNA expression after 24 hrs by qPCR analysis relative to control. The class given is cell-based.
The species entered for test [13] is Homo sapiens. Kind of test: Anti-invasive activity in human CME1 cells assessed as reduction in invasive potential at […] uM after 72 hrs by matrigel invasion assay. In kind it is functional, cell-based.
The species entered for test [14] is Homo sapiens. Description: Anti-invasive activity in human CME1 cells assessed as reduction in invasive potential at […] uM after 24 hrs by matrigel invasion assay. The class given is functional, cell-based.
Test [15] can be described thus: Antiproliferative activity against HPSE-expressing human CME1 cells after 72 hrs by SRB assay. The class given is functional.
The species named for test [16] is Homo sapiens. Kind of test: Anti-invasive activity in human CME1 cells assessed as reduction in invasive potential after 24 hrs by matrigel invasion assay. In kind it is functional, cell-based.

Calls of active or inactive are those of the source. The calls are words filed in the database; no cut-off is given here. Some results are limits rather than exact numbers.

Turning to `O=C(O)Cc1cccc(NC(=O)c2ccc(CC(O)Cc3ccc(C(=O)Nc4cccc(CC(=O)O)c4)cc3)cc2)c1`, the IC50 on Heparanase was greater than 10 µM.

On to `O=C(O)Cc1ccc2oc(-c3ccc(NC(=O)Nc4ccc(-c5nc6cc(CC(=O)O)ccc6o5)cc4)cc3)nc2c1`, for which the half-inhibitory concentration (IC50) entry was “Not Active” in the test with HT-1080 [1], 3.2 µM on Heparanase, “Not Active” in the test on U-87 MG [2] and “Not Active” in the test with U2OS [3].

Take `CC(C)CC(NC(=O)Cc1ccc2oc(-c3ccc(NC(=O)Nc4ccc(-c5nc6cc(CC(=O)NC(CC(C)C)B(O)O)ccc6o5)cc4F)c(F)c3)nc2c1)B(O)O` (stereo unspecified): the IC50 on Heparanase worked out at 4.87 µM.

Take `CC(C)CCNC(=O)Cc1ccc2oc(-c3ccc(NC(=O)Nc4ccc(-c5nc6cc(CC(=O)NCCC(C)C)ccc6o5)cc4F)c(F)c3)nc2c1`: the IC50 at Heparanase was greater than 10 µM.

As for `O=C(Cc1ccc2oc(-c3ccc(NC(=O)Nc4ccc(-c5nc6cc(CC(=O)NCB(O)O)ccc6o5)cc4F)c(F)c3)nc2c1)NCB(O)O`, on Heparanase, the IC50 was greater than 10 µM.

`O=C(O)CNC(=O)Cc1ccc2oc(-c3ccc(NC(=S)Nc4ccc(-c5nc6cc(CC(=O)NCC(=O)O)ccc6o5)cc4F)c(F)c3)nc2c1`: the inhibition at 10 µM was 50 to 90% with U-87 MG [4], 50 to 90% in the test with HT-1080 [10] and less than 50% in the test with U2OS [11]. Further, the inhibition in test [5], in test [6], in test [8] (concentration not given here), in test [9] (concentration not given here) and in test [12] was less than 40% in each case. Moreover, the half-inhibitory concentration (IC50) entry with HT-1080 [1] is “Not Active”; at Heparanase, 0.08 µM; with U-87 MG [2], “Not Active”; in the test on U2OS [3] it was “Not Active”. The inhibition entry in the test with HT-1080 [7] is “Active”.

As for `O=C(Cc1ccc2oc(-c3ccc(NC(=O)Nc4ccc(-c5nc6cc(CC(=O)NC(Cc7ccccc7)C(=O)O)ccc6o5)cc4F)c(F)c3)nc2c1)NC(Cc1ccccc1)C(=O)O` (stereo unspecified), the IC50 result in the test with HT-1080 [1] is “Not Active”; on Heparanase, 0.72 µM; in the test with U-87 MG [2], “Not Active”; in the test with U2OS [3], “Not Active”.

As for `Cc1cc2nc(N3CCC(NC(=O)NC4CCN(c5nc6cc(C)c(C)cc6o5)CC4)CC3)oc2cc1C`, the half-maximal inhibitory concentration (IC50) at Heparanase is greater than 10 µM.

On to `O=C(O)Cc1ccc2oc(-c3ccc(NC(=S)Nc4ccc(-c5nc6cc(CC(=O)O)ccc6o5)cc4F)c(F)c3)nc2c1`, for which, on Heparanase, the IC50 is 1.4 µM.

In the case of `O=C(O)Cc1ccc2oc(-c3ccc(NC(=S)Nc4ccc(-c5nc6cc(CC(=O)O)ccc6o5)cc4)cc3)nc2c1`, the IC50 on Heparanase is 1.81 µM.

As to `O=C(O)CNC(=O)Cc1ccc2[nH]c(-c3ccc(NC(=O)Nc4ccc(-c5nc6cc(CC(=O)NCC(=O)O)ccc6[nH]5)cc4F)c(F)c3)nc2c1`, the IC50 at Heparanase was greater than 10 µM.

`CC(NC(=O)Cc1ccc2oc(-c3ccc(NC(=O)Nc4ccc(-c5nc6cc(CC(=O)NC(C)C(=O)O)ccc6o5)cc4F)c(F)c3)nc2c1)C(=O)O` (stereo unspecified): the figures for the inhibition at 10 µM in the test with U-87 MG [4], in the test with HT-1080 [10] and in the test on U2OS [11] were 50 to 90%, less than 50% and less than 50%, respectively. Further, the IC50 entry in the test on HT-1080 [1] was “Not Active”; on Heparanase it was 0.37 µM; in the test on U-87 MG [2], “Not Active”; in the test with U2OS [3], “Not Active”.

As to `O=C(O)CNC(=O)Cc1ccc2oc(-c3ccc(NC(=O)Nc4ccc(-c5nc6cc(CC(=O)NCC(=O)O)ccc6o5)cc4F)c(F)c3)nc2c1`, the inhibition at 10 µM is 50 to 90% in the test on U-87 MG [4], 50 to 90% in the test on HT-1080 [10] and less than 50% in the test on U2OS [11]. Moreover, the inhibition in test [5], in test [6], in test [8] (concentration not given here), in test [9] (concentration not given here) and in test [12] was less than 40% throughout. For the same molecule, the IC50 result is “Not Active” with HT-1080 [1], 0.45 µM on Heparanase, “Not Active” in the test on U-87 MG [2] and “Not Active” in the test on U2OS [3].

In the case of `O=C(O)Cc1cccc(NS(=O)(=O)c2ccc(NC(=O)Nc3ccc(S(=O)(=O)Nc4cccc(CC(=O)O)c4)cc3)cc2)c1`, the IC50 on Heparanase was greater than 10 µM.

Turning to `O=C(Nc1ccc(C(=O)Nc2cccc(B(O)O)c2)cc1)Nc1ccc(C(=O)Nc2cccc(B(O)O)c2)cc1`, the IC50 at Heparanase is greater than 10 µM.

Consider `O=C(O)Cc1ccc2[nH]c(-c3ccc(NC(=S)Nc4ccc(-c5nc6cc(CC(=O)O)ccc6[nH]5)cc4F)c(F)c3)nc2c1`, for which the IC50 at Heparanase turned out to be 0.99 µM.

As for `O=C(Cc1ccc2[nH]c(-c3ccc(NC(=O)Nc4ccc(-c5nc6cc(CC(=O)NC(Cc7ccccc7)C(=O)O)ccc6[nH]5)cc4F)c(F)c3)nc2c1)NC(Cc1ccccc1)C(=O)O` (stereo unspecified), the half-maximal inhibitory concentration (IC50) at Heparanase amounted to 0.82 µM.

As for `O=C(O)Cc1ccc2oc(-c3ccc(NC(=O)Nc4ccc(-c5nc6cc(CC(=O)O)ccc6o5)cc4F)c(F)c3)nc2c1`, the inhibition at 10 µM is 50 to 90% in the test on U-87 MG [4], less than 50% with HT-1080 [10] and 50 to 90% with U2OS [11]. The inhibition result in test [5], in test [6], in test [8], in test [9] and in test [12] was “Active” in each case. In addition, the outcome in the test filed under Homo sapiens [13] was Active. In addition, the IC50 result in the test with HT-1080 [1] was “Not Active”; at Heparanase, 0.18 µM; in test [15] it was 9.5 µM; with U-87 MG [2] it was “Not Active”; with U2OS [3], “Not Active”. Also, in the test filed under Homo sapiens [14], the result was inactive. The Activity entry in the test filed under Homo sapiens [16] was “Dose-dependent effect”.

With `O=C(O)Cc1cccc(NC(=O)c2ccc(NC(=O)Nc3ccc(C(=O)Nc4cccc(CC(=O)O)c4)cc3)cc2)c1`, on Heparanase, the IC50 worked out at 1.76 µM.

With `Cc1cc2nc(-c3ccc(NC(=O)Nc4ccc(-c5nc6cc(C)c(C)cc6o5)cc4F)c(F)c3)oc2cc1C`, the IC50 at Heparanase was greater than 10 µM.

Regarding `O=C(O)Cc1cccc(NC(=O)c2ccc(NC(=S)Nc3ccc(C(=O)Nc4cccc(CC(=O)O)c4)cc3F)c(F)c2)c1`, the IC50 at Heparanase is 2.61 µM.

In the case of `O=C(O)Cc1cccc(NC(=O)c2ccc(CC(=O)Cc3ccc(C(=O)Nc4cccc(CC(=O)O)c4)cc3)cc2)c1`, at Heparanase, the IC50 is greater than 10 µM.

Take `Cc1cc2nc(-c3ccc(NC(=O)Nc4ccc(-c5nc6cc(C)c(C)cc6o5)cc4)cc3)oc2cc1C`: the IC50 at Heparanase is greater than 10 µM.

Regarding `O=C(O)Cc1ccc2oc(-c3cccc(NC(=O)Nc4cccc(-c5nc6cc(CC(=O)O)ccc6o5)c4)c3)nc2c1`, the IC50 on Heparanase is greater than 10 µM.

In the case of `O=C(O)Cc1ccc(O)c(NC(=O)c2ccc(CC(O)Cc3ccc(C(=O)Nc4cc(CC(=O)O)ccc4O)cc3)cc2)c1`, the IC50 on Heparanase is greater than 10 µM.

Consider `O=C(O)Cc1ccc2oc(N3CCC(NC(=O)NC4CCN(c5nc6cc(CC(=O)O)ccc6o5)CC4)CC3)nc2c1`, for which the IC50 at Heparanase was greater than 10 µM.

As for `N=C(Nc1ccc(-c2nc3cc(CC(=O)O)ccc3o2)cc1)Nc1ccc(-c2nc3cc(CC(=O)O)ccc3o2)cc1`, the IC50 at Heparanase was found to be 6.02 µM.

`O=C(Cc1ccc2[nH]c(-c3ccc(NC(=O)Nc4ccc(-c5nc6cc(CC(=O)NCB(O)O)ccc6[nH]5)cc4F)c(F)c3)nc2c1)NCB(O)O`: the IC50 on Heparanase was greater than 10 µM.

Turning to `O=C(O)Cc1ccc2[nH]c(-c3ccc(NC(=O)Nc4ccc(-c5nc6cc(CC(=O)O)ccc6[nH]5)cc4F)c(F)c3)nc2c1`, the IC50 at Heparanase is 0.98 µM.

`O=C(O)Cc1ccc(O)c(NC(=O)c2ccc(NC(=O)Nc3ccc(C(=O)Nc4cc(CC(=O)O)ccc4O)cc3)cc2)c1`: the IC50 at Heparanase came to 2.73 µM.

Regarding `O=C(Nc1ccc(C(=O)Nc2cccc(C(=O)O)c2)cc1)Nc1ccc(C(=O)Nc2cccc(C(=O)O)c2)cc1`, the IC50 on Heparanase worked out at 9.17 µM.
